Experiments:
THP-1 cells = test: Pro-inflammatory mediators (TNF-α, IL-1β, Cox-2, PGE2) in saturated fatty acid-treated THP-1 cells; assay type: cell-based, human; details: for induction of TNF-α in THP-1 cells: 0, 2.5, 5, 10 μmol/L saturated fatty acid, 24 hours, real-time PCR
Protocol: (§1) THP-1 cells (ATCC) were maintained in RPMI-1640 medium (Invitrogen) supplemented with 10% FBS. These cells were treated with phorbol 12-myristate 13-acetate (10 ng/mL) overnight to differentiate them into macrophages. Human monocytes (Astarte Biologics) were activated with IFNγ (15 ng/mL) and lipopolysaccharide (15 ng/mL) in RPMI-1640 medium for 4 days. THP-1 cells and blood monocyte-derived macrophages were then treated with saturated fatty acids (Nu-CheK Prep) as indicated. To prepare conditioned medium (CM), the cells were treated with saturated fatty acids for 12 hours in medium comprised of RPMI-1640 and preadipocyte medium (ScienCellTMResearch Laboratories) at a 1:1 ratio. Following treatment with fatty acids, the medium was removed and cells were washed thrice with PBS to remove fatty acids. Subsequently, fresh medium was added for 24 hours. This CM was then collected and centrifuged at 4,000 rpm for 30 minutes to remove cell debris. CM was used to treat preadipocytes.
(§2) Lysates were prepared by treating cells with lysis buffer, sonicating for 20 seconds on ice and centrifuging at 10,000×g for 10 minutes to remove particulate material. The protein concentration of the supernatant was measured by the method of Lowry et al. (Lowry 1951). SDS-PAGE was done under reducing conditions on 10% polyacrylamide gels. The resolved proteins were transferred onto nitrocellulose sheets and incubated with primary antisera. Antibodies to phospho-p65, p65, histone H3, Cox-2 and β-actin were used (Santa Cruz Biotechnology). Secondary antibody to IgG conjugated to horseradish peroxidase was used. The blot was probed with the ECL Western blot detection system.
(§3) Total RNA was isolated using the RNeasy mini kit (Qiagen). For tissue analyses, poly A RNA was prepared with an Oligotex mRNA mini kit (Qiagen). Poly A RNA was reversed transcribed using murine leukemia virus reverse transcriptase and oligo (dT)16 primer. The resulting cDNA was then used for amplification using primers listed Table 1. GAPDH and β-actin were used as endogenous normalization controls for tissue and cell culture analyses, respectively. Real-time PCR was performed using 2×SYBR green PCR master mix on a 7500 Real-time PCR system (Applied Biosystems). Relative fold induction was determined using the ddCT (relative quantification) analysis protocol.
LC/MS/MS analyses were performed using a Tandem Quadrupole Mass Spectrometer (Agilent) equipped with an Agilent 1200 binary pump HPLC system using a modified version of the method of Yang 2006. PGs were chromatographically separated using a Gemini 3-μm C6-phenyl 4.6×100 mm analytical column (Phenomenex). The mobile phase consisted of 0.1% formic acid in water (mobile phase A) and 0.1% formic acid in acetonitrile (mobile phase B). The chromatographic baseline resolution for the PGs of interest was achieved using a linear gradient that went from 20% to 40% mobile phase B for 12 minutes and then from 40% to 70% for 8 minutes. This was then increased to 90% mobile phase B over the next 2 minutes and kept at this level for an additional 3 minutes. The flow rate was 0.8 mL/min with a column temperature of 40° C. The mass spectrometer was operated in negative electrospray ionization mode with capillary voltage of 2.9 kV, a cone gas flow rate of […] and a shear gas flow rate of 12 mL/minute at 350° C. PGs were detected and quantified using multiple reaction mode monitoring of the transitions m/z 351 to 271 for PGE2 and m/z 355 to 275 for PGE2-d4. The results are expressed as nanograms of PGE2 per mg of protein. For measurements of PGE2 in cell culture media, EIA kits were used (Cayman Chemicals).
TNF-α and IL-1β levels were quantified in cell culture media using EIA kits (R & D systems).
Experiments were carried out in vitro to determine if saturated fatty acids stimulated the production of pro-inflammatory molecules by macrophages leading, in turn, to elevated aromatase expression in preadipocytes.

[1] = system: aromatase in human preadipocytes; test: Induction of aromatase mRNA and activity in preadipocytes by macrophage-derived conditioned medium; assay type: cell-based; details: for aromatase mRNA and activity in human preadipocytes: preadipocytes treated 24 hours
Protocol: Human visceral preadipocytes (ScienCell™) were grown in preadipocyte medium containing 10% FBS.
as §1, §3
To determine aromatase activity, microsomes were prepared from cell lysates and tissues by differential centrifugation using established methods (Subbaramaiah 2006). Aromatase activity was quantified by measurement of the tritiated water released from 1β-[^3H]-androstenedione (Subbaramaiah 2008). The reaction was also performed in the presence of letrozole, a specific aromatase inhibitor, as a specificity control and without NADPH as a background control. Aromatase activity was normalized to protein concentration.
Further, to investigate whether conditioned medium from saturated fatty acid-treated macrophages induced aromatase in preadipocytes, THP-1 cells or human blood monocyte-derived macrophages were treated with 0, 2.5, 5 or 10 μmol/L LA, MA, PA or SA as described above to generate CM (n=6). This CM was used to treat preadipocytes for 24 hours. Aromatase mRNA and activity levels were determined. Treatment with CM derived from either saturated fatty acid-treated THP-1 cells or human blood monocyte-derived macrophages induced aromatase mRNA and activity in human preadipocytes. Neutralizing either TNF-α or IL-1β by incubating the CM from SA-treated cells with neutralizing antibodies to TNF-α, IL-1β or control IgG overnight at 4° C. attenuated CM-mediated induction of aromatase in preadipocytes.
Next, THP-1 cells were transfected as indicated with control siRNA or TNF-α siRNA, IL-1β siRNA or Cox-2 siRNA for 36 hours. Cells were then treated with vehicle (control) or 10 μmol/L SA as described above. The levels of TNFα, IL-1β and PGE2 were measured by enzyme immunoassay in the CM. Cox-2 protein abundance was determined by immunoblotting of whole cell lysates using β-actin was used as a loading control. Preadipocytes were treated with THP-1 cell-derived CM for 24 hours prior to measurements of aromatase mRNA and activity. […] Following treatment, the medium was removed and cells were washed. Subsequently, fresh medium was added for 24 hours to generate CM. PGE2 production was measured in CM. Preadipocytes were treated with THP-1 cell-derived CM for 24 hours prior to measurements of aromatase mRNA and activity. […]

NF-κB = test: NF-κB-luciferase reporter assay in THP-1 cells; assay type: cell-based, human; details: for NF-κB-luciferase activity in THP-1 cells: 10 μmol/L fatty acid, 24 hours
Protocol: NF-κB-luciferase (Panomics) and pSVβgal (Promega) were transfected into THP-1 cells using the Amaxa system. After 24 hours of incubation, the medium was replaced with basal medium. The activities of luciferase (BD Biosciences) and β-galactosidase were measured in cellular extracts. For siRNA transfections, THP-1 cells were plated at 60% confluence and transfected with non-targeting siRNA or siRNA targeting TNF-α, IL-1β, Cox-2 and p65 using Dharmafect 4 for 36 hours. Subsequently, the cells were treated with vehicle or saturated fatty acids.
To investigate the potential role of the transcription factor NF-κB in saturated fatty acid-mediated induction of TNF-α, IL-1β and Cox-2 in macrophages, transient transfection assays were performed in saturated fatty acid-treated THP-1 cells with an NF-κB-luciferase reporter construct and pSV-βgal constructs.
The effects of BAY11-7082, a pharmacological inhibitor of NF-κB, were evaluated. THP-1 cells were transiently transfected with NF-κB-luciferase and pSV-βgal constructs and cells were subsequently treated with vehicle, 10 μmol/L SA or SA plus 0, 5 or 10 μmol/L of BAY11-7082 (InvivoGen) for 12 hours. NF-κB luciferase activity was normalized to β-galactosidase activity. Additionally, THP-1 cells were treated with vehicle (control), 10 μmol/L SA or SA plus 10 μmol/L BAY11-7082 for 24 hours. Levels of TNF-α protein, IL-1β protein and PGE2 in the CM were determined by enzyme immunoassay. Preadipocytes were treated with THP-1 cell-derived CM for 24 hours prior to measurements of aromatase mRNA and activity.

p65 = test: Immunoblotting of phospho-p65 and p65 in THP-1 cells; assay type: cell-based, human; details: 30 minutes; for phosphorylation of p65: THP-1 cells, 0, 2.5, 5 or 10 μmol/L fatty acid
Protocol: as §2
The abundance of phospho-p65 was determined by immunoblotting in cytosolic and nuclear preparations of cells treated with vehicle (control) or 10 μmol/L SA for 30 minutes. β-actin and histone H3 were used as cytosolic and nuclear markers, respectively.

NF-κB binding sites = test: Electrophoretic mobility shift assay of nuclear protein from THP-1 cells; assay type: cell-based, human; details: THP-1 cells, 0, 2.5, 5 or 10 μmol/L SA, 1 hour; EMSA
Protocol: Nuclear extracts were prepared from mouse mammary glands using an EMSA kit (Promega). For binding studies, oligonucleotides containing NF-κB sites (Active Motif) were used. The complementary oligonucleotides were annealed in 20 mmol/L Tris (pH 7.6), 50 mmol/L NaCl, 10 mmol/L MgCl2, and 1 mmol/L dithiothreitol. The annealed oligonucleotide was phosphorylated at the 5′ end with [γ-^32P]ATP and T4 polynucleotide kinase. The binding reaction was performed by incubating 5 μg of nuclear protein in 20 mmol/L HEPES (pH 7.9), 10% glycerol, 300 μg of bovine serum albumin, and 1 μg of poly(dI·dC) in a final volume of 10 μL for 10 minutes at 25° C. The labeled oligonucleotides were added to the reaction mixture and allowed to incubate for an additional 20 minutes at 25° C. The samples were electrophoresed on a 4% nondenaturing polyacrylamide gel. The gel was then dried and subjected to autoradiography at −80° C.
DNA-protein binding complexes to NF-κB binding sites were examined by electrophoretic mobility shift assays (EMSA). Nuclear protein was prepared from THP-1 cells treated with 0, 2.5, 5 or 10 μmol/L of SA for 1 hour. In another experiment, nuclear protein was prepared from THP-1 cells treated with vehicle or 10 μmol/L SA for 1 hour, and the nuclear protein was incubated with normal IgG or different concentrations of antibodies to p65. […]

[2] = 10 μmol/L SA plus 10 μmol/L BAY11-7082, 24 hours, enzyme immunoassay
[3] = CM from THP-1 cells treated with 0, 2.5, 5 or 10 μmol/L fatty acid
[4] = CM from human blood monocyte-derived macrophages treated with 0, 2.5, 5 or 10 μmol/L fatty acid

Cc1ccc(S(=O)(=O)/C=C/C#N)cc1 [BAY11-7082]
production of increased amounts of IL-1β in CM (THP-1 cells; [2]): suppressed
production of increased amounts of PGE2 in CM (THP-1 cells; [2]): suppressed
production of increased amounts of TNF-α in CM (THP-1 cells; [2]): suppressed
ability of macrophage-derived CM to induce aromatase expression and activity ([1]; following NF-κB inhibition of THP-1 cells with BAY11-7082, preadipocytes treated with CM 24 hours): suppressed
SA-mediated activation of NF-κB (NF-κB luciferase activity) (NF-κB; 10 μmol/L SA plus 0, 5 or 10 μmol/L BAY11-7082, 12 hours): suppressed

CCCCCCCCCCCC(=O)O [LA, lauric acid]
induction of TNF-α in THP-1 cells (THP-1 cells): dose-dependent induction
aromatase mRNA and activity in human preadipocytes [1, 3]: induced
aromatase mRNA and activity in human preadipocytes [1, 4]: induced

CCCCCCCCCCCCCC(=O)O [MA, myristic acid]
induction of TNF-α in THP-1 cells (THP-1 cells): dose-dependent induction
aromatase mRNA and activity in human preadipocytes [1, 3]: induced
aromatase mRNA and activity in human preadipocytes [1, 4]: induced

CCCCCCCCCCCCCCCC(=O)O [PA, palmitic acid]
induction of TNF-α in THP-1 cells (THP-1 cells): dose-dependent induction
aromatase mRNA and activity in human preadipocytes [1, 3]: induced
aromatase mRNA and activity in human preadipocytes [1, 4]: induced
NF-κB-luciferase activity in THP-1 cells (NF-κB): induced
phosphorylation of p65 (p65): stimulated

CCCCCCCCCCCCCCCCCC(=O)O [SA, stearic acid]
induction of TNF-α in THP-1 cells (THP-1 cells): dose-dependent induction
aromatase mRNA and activity in human preadipocytes [1, 3]: induced
aromatase mRNA and activity in human preadipocytes [1, 4]: induced
NF-κB-luciferase activity in THP-1 cells (NF-κB): induced
binding of nuclear protein to a 32P-labeled NF-κB consensus sequence (NF-κB binding sites): stimulated
phosphorylation of p65 (p65): stimulated
translocation of p65 from cytosol to nucleus (p65; THP-1 cells, 10 μmol/L SA): stimulated

Reference: US20130324617A1, “CROWN-LIKE STRUCTURES AS A BIOMARKER FOR CANCER RISK AND CANCER PROGNOSIS” (MEMORIAL SLOAN-KETTERING CANCER CENTER, priority 2011, published 2013)
